In the supplement of paper PMC11208160:

Test: recombinant UMI read abundance after kanamycin selection (control-corrected) (log10(CPM+1)); higher = more efficient recombination; extreme values may be limits of the assay; sequences stand for … in AGTGCAGAGAAAATCGGCCAGTTTTCTCTGCCTGCAGTCCGCATGCCGTGGGACCCCTTGGGTTCTAACCTGTTGCCTAGATTTATGCAGCGGACTGCCTTTCTCCCAAAGTGATAAACCGG…AGGTTGGTTTCACT; site = the 11-nt donor
Summary of the method: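 The measure is log10(CPM+1) for recombinant UMIs. These were PCR-amplified across the donor–target junction and sequenced after Escherichia coli carrying a donor and donor-binding-loop pair library and a target plasmid with T7-inducible IS621 bridge recombinase was plated on IPTG (0.07 mM) plus kanamycin or unselected. CPM were averaged over two replicates and scaled by control-derived factors.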
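Also: IS621 bridge recombinase in Escherichia coli cells against a fixed T5 target plasmid.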

**Q.** With “TCACATCCATGGACCGGTTTTCCCGGTAATCCGTATTTGAC (site ACACATCCTGT)” as the sequence, how does the “recombinant UMI read abundance (log10)” value read?
**A.** 0

**Q.** Which “recombinant UMI read abundance (log10)” value does the source give for “TCACATCCATGGACCGGTTTTCCCGGTAATCCGTATTTGAC (site CCACATCCTGT)” here?
**A.** 0

**Q.** With “TCACATCCATGGACCGGTTTTCCCGGTAATCCGTATTTGAC (site GCACATCCTGT)” as the sequence, how does the “recombinant UMI read abundance (log10)” value read?
**A.** 0

**Q.** With “TCACATCCATGGACCGGTTTTCCCGGTAATCCGTATTTGAC (site TCACATCCTGT)” as the sequence, how does the “recombinant UMI read abundance (log10)” value read?
**A.** 0

**Q.** Which “recombinant UMI read abundance (log10)” value does the source give for “TCACCCGCATGGACCGGTTTTCCCGGTAATCCGTATTTGGT (site TCACCCGCTAC)” here?
**A.** 0.206

**Q.** With “TCACCTTCATGGACCGGTTTTCCCGGTAATCCGTATTTGGT (site TCACCTTCTAC)” as the sequence, how does the “recombinant UMI read abundance (log10)” value read?
**A.** 0.0163

**Q.** For “TCACGAACATGGACCGGTTTTCCCGGTAATCCGTATTTGTC (site ACACGAACTGA)”, which “recombinant UMI read abundance (log10)” value is on record?
**A.** 0

**Q.** With “TCACGAACATGGACCGGTTTTCCCGGTAATCCGTATTTGTC (site CCACGAACTGA)” as the sequence, how does the “recombinant UMI read abundance (log10)” value read?
**A.** 0.736

**Q.** With “TCACGAACATGGACCGGTTTTCCCGGTAATCCGTATTTGTC (site GCACGAACTGA)” as the sequence, how does the “recombinant UMI read abundance (log10)” value read?
**A.** 0

**Q.** For “TCACGAACATGGACCGGTTTTCCCGGTAATCCGTATTTGTC (site TCACGAACTGA)”, which “recombinant UMI read abundance (log10)” value is on record?
**A.** 0

**Q.** For “TCACGAGCATGGACCGGTTTTCCCGGTAATCCGTATTTGAA (site TCACGAGCTTT)”, which “recombinant UMI read abundance (log10)” value is on record?
**A.** 1.23

**Q.** Which “recombinant UMI read abundance (log10)” value does the source give for “TCACGCACATGGACCGGTTTTCCCGGTAATCCGTATTTGAC (site TCACGCACTGT)” here?
**A.** 0.943

**Q.** For “TCACGCGCATGGACCGGTTTTCCCGGTAATCCGTATTTGCT (site TCACGCGCTAG)”, which “recombinant UMI read abundance (log10)” value is on record?
**A.** 1.67

**Q.** Which “recombinant UMI read abundance (log10)” value does the source give for “TCACGGACATGGACCGGTTTTCCCGGTAATCCGTATTTGCT (site TCACGGACTAG)” here?
**A.** 1.43

**Q.** With “TCAGAAACATGGACCGGTTTTCCCGGTAATCCGTATTTGCG (site TCAGAAACTCG)” as the sequence, how does the “recombinant UMI read abundance (log10)” value read?
**A.** 1.86

**Q.** Which “recombinant UMI read abundance (log10)” value does the source give for “TCAGAAACATGGACCGGTTTTCCCGGTAATCCGTATTTGCG (site TCAGACACTCG)” here?
**A.** 0.0112

**Q.** Which “recombinant UMI read abundance (log10)” value does the source give for “TCAGAAACATGGACCGGTTTTCCCGGTAATCCGTATTTGCG (site TCAGAGACTCG)” here?
**A.** 2.47

**Q.** For “TCAGAAACATGGACCGGTTTTCCCGGTAATCCGTATTTGCG (site TCAGATACTCG)”, which “recombinant UMI read abundance (log10)” value is on record?
**A.** 0.202

**Q.** With “TCAGAAACATGGACCGGTTTTCCCGGTAATCCGTATTTGTA (site TCAGAAACTTA)” as the sequence, how does the “recombinant UMI read abundance (log10)” value read?
**A.** 2.07

**Q.** With “TCAGACACATGGACCGGTTTTCCCGGTAATCCGTATTTGCG (site TCAGAAACTCG)” as the sequence, how does the “recombinant UMI read abundance (log10)” value read?
**A.** 0

**Q.** With “TCAGACACATGGACCGGTTTTCCCGGTAATCCGTATTTGCG (site TCAGACACTCG)” as the sequence, how does the “recombinant UMI read abundance (log10)” value read?
**A.** 1.77

**Q.** With “TCAGACACATGGACCGGTTTTCCCGGTAATCCGTATTTGCG (site TCAGAGACTCG)” as the sequence, how does the “recombinant UMI read abundance (log10)” value read?
**A.** 0.0043

**Q.** With “TCAGACACATGGACCGGTTTTCCCGGTAATCCGTATTTGCG (site TCAGATACTCG)” as the sequence, how does the “recombinant UMI read abundance (log10)” value read?
**A.** 0.946

**Q.** With “TCAGAGACATGGACCGGTTTTCCCGGTAATCCGTATTTGAA (site TCAGAGACTTT)” as the sequence, how does the “recombinant UMI read abundance (log10)” value read?
**A.** 1.74

**Q.** Which “recombinant UMI read abundance (log10)” value does the source give for “TCAGAGACATGGACCGGTTTTCCCGGTAATCCGTATTTGCA (site TCAGAGACTAG)” here?
**A.** 0.204

**Q.** Which “recombinant UMI read abundance (log10)” value does the source give for “TCAGAGACATGGACCGGTTTTCCCGGTAATCCGTATTTGCA (site TCAGAGACTCG)” here?
**A.** 1.34

**Q.** Which “recombinant UMI read abundance (log10)” value does the source give for “TCAGAGACATGGACCGGTTTTCCCGGTAATCCGTATTTGCA (site TCAGAGACTGG)” here?
**A.** 0.635

**Q.** With “TCAGAGACATGGACCGGTTTTCCCGGTAATCCGTATTTGCA (site TCAGAGACTTG)” as the sequence, how does the “recombinant UMI read abundance (log10)” value read?
**A.** 2.49

**Q.** For “TCAGAGACATGGACCGGTTTTCCCGGTAATCCGTATTTGCC (site TCAGAGACTAG)”, which “recombinant UMI read abundance (log10)” value is on record?
**A.** 0.85
